Tested on: Female Wistar rats
Assay: Activity test in ovariectomized, right sciatic nerve amputated rats: femur bone density and serum calcium after 6 weeks of oral administration
Assay type: in vivo
Settings: for Serum calcium concentration / Bone density: 5 days per week for 6 weeks; for Serum calcium concentration: blood drawn the day after final administration; for Bone density: right femur, ash weight/volume, ovariectomy and sciatic nerve amputation; for increase in bone density / increase in serum calcium concentration: in words, compared with known 1α-hydroxy vitamin D₃, summary of Table 1
Text: Seventy two rats were subjected to bilateral ovariectomy and right sciatic nerve amputation. Rats were divided into 9 groups of eight animals each. Another group of eight rats was subjected to sham operation. Over a period of 6 weeks after operation, each group was orally administered either 1α-hdyroxy vitamin D₃, 1α-hydroxy vitamin D₇ or 1α-hydroxy vitamin D₄ dissolved in 0.5% ethanol/porpyleneglycol (vehicle) at the frequency of 5 days per week. The sham operated group and control group were orally administered the vehicle alone. The next day after final administration, rats were killed, blood was drawn from abdominal cave and right femur was extracted. The bone volume of femur was measured in accordance with Archimedes' principle. After heat treatment at 700°C for 24 hrs, the weight of bone ash was measured. From these measured values, the bone density (ash weight/volume) of each femur was calculated. Serum calcium concentration was determined according to usual method.

Serum calcium concentration (0.02 µg/kg/day oral)	Serum calcium concentration (0.1 µg/kg/day oral)	Structure (SMILES)	Serum calcium concentration (0.5 µg/kg/day oral)	Bone density (0.5 µg/kg/day oral)	Serum calcium concentration (2.5 µg/kg/day oral)	Bone density (2.5 µg/kg/day oral)	Serum calcium concentration (12.5 µg/kg/day oral)	Bone density (12.5 µg/kg/day oral)	increase in bone density	increase in serum calcium concentration	Bone density (0.02 µg/kg/day oral)	Bone density (0.1 µg/kg/day oral)
–	–	C=C1/C(=C\C=C2/CCC[C@]3(C)[C@@H]([C@H](C)CC[C@@H](C)C(C)C)CC[C@@H]23)C[C@@H](O)C[C@@H]1O [1α-OH-D7, 1α-hydroxy vitamin D₇]	10.5 ± 0.1 mg/dL	0.581±0.004 mg/mm^3	10.7 ± 0.3 mg/dL	0.585±0.007 mg/mm^3	10.9 ± 0.5 mg/dL	0.589±0.004 mg/mm^3	much greater increase in bone density	lesser increase in serum calcium concentration	–	–
10.8 ± 0.1 mg/dL	11.0 ± 0.1 mg/dL	C=C1/C(=C\C=C2/CCC[C@]3(C)[C@@H]([C@H](C)CCCC(C)C)CC[C@@H]23)C[C@@H](O)C[C@@H]1O [1α-OH-D3, 1α-hydroxy vitamin D₃, reference compound]	12.4 ± 0.2 mg/dL	0.560±0.006 mg/mm^3	–	–	–	–	–	–	0.556±0.005 mg/mm^3	0.545±0.007 mg/mm^3
–	–	C=C1/C(=C\C=C2/CCC[C@]3(C)[C@@H]([C@H](C)CC[C@H](C)C(C)C)CC[C@@H]23)C[C@@H](O)C[C@@H]1O [1α-OH-D4, 1α-hydroxy vitamin D₄]	10.5 ± 0.2 mg/dL	0.576±0.006 mg/mm^3	11.0 ± 0.4 mg/dL	0.583 ± 0.003 mg/mm^3	–	–	much greater increase in bone density	lesser increase in serum calcium concentration	–	–

From EP0562497A1, “1 alpha-hydroxy vitamins D7 and D4' processes for the preparation thereof and pharmaceutical compositions” (NISSHIN FLOUR MILLING CO., LTD., priority 1992, dated 1993)
